We go through ten compounds from PubChem BioAssay (NCI).

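Following 48 hours of exposure in 96-well plates, responses at five concentrations were used to interpolate endpoints linearly. Here, GI50 denotes the concentration required for 50% inhibition of growth. At the TGI there is no net growth.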

Common to all, as to assay: NCI anticancer screen, dose series, 48 h
Experiment [1] deals with IGROV1 ovarian.
For experiment [2], the system named is OVCAR-8 ovarian.
Experiment [3] relates to RPMI-8226 leukemia.
For experiment [4], the system named is K-562 leukemia.
The subject of experiment [5] is SW-620 colon.
The subject of experiment [6] is HCT-116 colon.
Experiment [7] relates to SF-539 CNS.
Experiment [8] concerns OVCAR-3 ovarian.
The subject of experiment [9] is NCI-H23 lung.
The test system of experiment [10] is HT29 colon.

As to `O=[N+]([O-])c1ccc(C2=Nc3ccccc3SC(c3ccccc3)C2)cc1` (centres undefined), the TGI stood at 33.3 µM in [1]; 40.3 µM in [2]; 48.4 µM in [3]; 67.6 µM in experiment [4]; 27.8 µM in experiment [5]; 24.2 µM in experiment [6]. The same compound displayed a TGI in experiment [7] of 40.3 µM.

Consider `O=C([CH-]C(=O)c1ccccc1)c1ccccc1.O=C([CH-]C(=O)c1ccccc1)c1ccccc1.[O]=[U+2]=[O]`, for which the GI50 is 3.33 µM in experiment [1]; 3.02 µM in experiment [2]; 1.99 µM in experiment [3]; 3.15 µM in experiment [5]; 1.81 µM in [8]; 4.01 µM in experiment [9]. The GI50 is 2.99 µM in experiment [6], 2.39 µM in experiment [10] and 2.45 µM in experiment [7]. In addition, the TGI is 12.6 µM in experiment [1]; over 100 µM in [2]; 6.4 µM in experiment [3]; over 100 µM in [5]; 4.79 µM in [8]; over 100 µM in experiment [9]. In addition, the TGI in experiment [6] turned out to be 15.9 µM; in experiment [10] it was 7.71 µM; in [7], 6.44 µM.

For `O=C(c1ccco1)C1CC(c2c(O)ccc3ccccc23)=NN1` (centres undefined), the TGI was 42 µM in experiment [1]; 51.5 µM in experiment [2]; 86.6 µM in experiment [3]; over 100 µM in experiment [4]; 31 µM in [5]; 25.8 µM in experiment [8]. In addition, the TGI stood at 37.7 µM in experiment [9], 24 µM in [10] and 26.7 µM in experiment [7].

For the compound `NC(=O)c1ncn2c1NC(=O)CC2`, the TGI in [1], in [2], in experiment [3], in experiment [4], in experiment [5] and in experiment [8] was over 100 µM throughout. In addition, the TGI in experiment [9], in experiment [6], in [10] and in experiment [7] was over 100 µM each time.

Take `COC(=O)C1=C(O)C(C(=O)OC)[C@@]2(O)[C@@H](C(=O)OC)[C@H](C)[C@@H](C)[C@@H]1[C@@H]2C(=O)OC` (some centres undefined): the TGI was over 100 µM in experiment [3]; over 100 µM in experiment [4]; 78.2 µM in experiment [8]; over 100 µM in experiment [9]; over 100 µM in [6]; over 100 µM in experiment [10]. In [7], this compound displayed a TGI of over 100 µM.

Turning to `CC1(C)OC2CC(=O)OCC23C1CC(=O)C1(C)C3CCC2(C)C(c3ccoc3)OC(=O)C3OC321` (centres undefined), the TGI in [1] was over 125 µM; in [2], 7.03 µM; in experiment [3], over 125 µM; in [4], over 70.3 µM; in [5], over 125 µM; in [8] it was over 125 µM. Further, the TGI in [9], in experiment [6], in experiment [10] and in [7] was over 125 µM each time.

Consider `CCN1C(=O)N(CC)C2Nn3c(s/c(=C4\C(=O)N(C)c5ccccc54)c3=O)=NC21` (centres undefined), for which the GI50 in experiment [1] is 3.37 µM; in [2], 4.3 µM; in [3], 3.97 µM; in [4], 0.727 µM; in experiment [5], 1.52 µM; in [8] it was 1.99 µM. Further, the figures for the GI50 in [9], in experiment [6] and in experiment [10] were 3.38 µM, 1.95 µM and 2.33 µM, respectively. Also, the TGI in experiment [1], in experiment [2], in experiment [3], in experiment [4], in experiment [5] and in [8] was over 100 µM throughout. Besides, the TGI in experiment [9], in [6] and in [10] was over 100 µM each time.

With `CCCCC#CS(=O)(=O)C(F)(F)F`, the TGI in experiment [1], in experiment [2], in [3], in experiment [4], in experiment [5] and in experiment [8] was over 100 µM each time. For the same compound, the TGI in experiment [9], in experiment [6], in experiment [10] and in experiment [7] was over 100 µM each time.

As to `Cc1c2ccncc2c(C)c2c1[nH]c1ccccc12`, the TGI amounted to 3.76 µM in experiment [1]; 2.32 µM in [2]; 3.11 µM in experiment [3]; 5.09 µM in [4]; 2.07 µM in experiment [5]; 2.65 µM in experiment [8]. For the same compound, the TGI in [9] is 2.58 µM; in [6], 1.68 µM; in experiment [10], 3.88 µM; in [7], 2.11 µM.

In the case of `O=C(OCc1ccccc1)C(Cc1ccccc1)N(Cc1ccccc1)Cc1ccccc1` (centres undefined), the TGI in [1], in experiment [2], in experiment [3], in experiment [4], in experiment [5] and in experiment [8] was over 100 µM each time. The TGI in [9], in experiment [6], in experiment [10] and in [7] was over 100 µM throughout.
